# Test results as given in patent publication EP0398925B1, “GROWTH INHIBITING AGENT AND THE USE THEREOF” (CHILDREN'S HOSPITAL CORPORATION, priority 1988, dated 1989).
# How the values were obtained:
# [1] = test system: chorioallantoic membrane of the chick embryo; assay: CAM assay: avascular zone around a methylcellulose disc holding the test substance; type: in vivo; settings: for angiogenesis-inhibition: 100 µg of cyclodextrin with 50 µg of hydrocortisone, no successes at (+) or (++) level; for angiogenesis suppression activity: unmodified CDs with hydrocortisone (Examples 18-20)
# From the text: A more economic bioassay makes use of the chorioallantoic membrane of the chick embryo. This test will for convenience be referred to hereinafter as the "CAM assay". For a more detailed description of the CAM assay, see Folkman et al., Science 221:719 (1983). A typical CAM assay, such as used for the evaluations in the examples in Section 7, infra, employs 16 eggs per experiment. A 2 mm diameter disk of methylcellulose containing the test substance is applied to the chorioallantoic membrane of a 6-day chick embryo, cultured in a Petri dish, in a humidified incubator with 3% carbon dioxide. Two days later (8-day embryo), the membrane is examined under a stereomicroscope at six- to ten-fold magnification. Inhibition of angiogenesis by the test substance is evidenced by the development of an avascular zone around the methylcellulose disc. An avascular zone of 4 mm is graded as (++) and an avascular zone of 2 mm is graded as (+). […] A rating of zero % reflects absence of inhibition or the test substance under the test conditions.
# The sustained release methylcellulose discs are prepared by dispersing appropriate amount(s) of the test substance of substances in an 0.45% aqueous solution of methylcellulose, and depositing 10 microliter aliquots of the resulting solution in a Teflon mold, followed by air drying for about one hour in a laminar flow hood.
# rabbit cornea [2] = assay: Rabbit cornea test, endotoxin Elvax implant, test substance given in a second Elvax implant; type: in vivo; settings: day 13, Elvax pellet with β-CD-TDS 15 µg/mm³ and/or cortexolone 30 µg/mm³, over 100% = stimulation; for Vessel Density, Inhibition (% of Untreated Control Group): length-density index
# Procedure: In another series of experiments, the antiangiogenic activity of a water-soluble cyclodextrin salt derivative in combination with cortexolone was evaluated using the rabbit cornea test as described by Gimbrone et al., J. Nat'l Cancer Inst. 52:413 (1974). In these experiments, E. coli endotoxin (17 µg/mm³) incorporated into sustained release polymer pellets of ethylene vinylacetate copolymer [Elvax, Sigma Chemical, St. Louis, MO (hereinafter "Elvax")] was implanted between the vascular limbal edge of the rabbit corneas. The test substance(s) were administered by means of a second Elvax implant incorporating the particular test substance.
# Elvax containing endotoxin was implanted into the corneas of 12 rabbits. The animals were then divided into 4 groups and 4 eyes were treated for each group as follows: Group 1, received no further treatment and served as the control group; Group 2, β-CD-TDS at 15 µg/mm³ Elvax pellet; Group 3, cortexolone at 30 µg/mm³ Elvax pellet; and Group 4, a combination of β-CD-TDS and cortexolone incorporated into an Elvax pellat at a final concentration of 15 µg/mm³ Elvax of β-CD-TDS and 30 µg/mm³ Elvax of cortexolone. The vessel length of new capillary growth was measured every 2 days with a slit-lamp stereoscope at 10X using an ocular grid calibrated to ± 0.1 mm.
# Thus, the vessel density was also evaluated and graded using the following scale: O=no vessels/cornea; 1=1-4 vessels/cornea; 2=5-20 vessels/cornea; 3=20-50 vessels/cornea; and 4=more than 50 vessels/cornea. This grade was then multiplied by mean maximal length of the vessels to obtain a semi-quantitative estimate of vessel density (length-density index) for each cornea.
# rabbit cornea [3] = assay: Rabbit corneal test, endotoxin implant, test substance applied topically as eye drops; type: in vivo; settings: eye drops in saline; 9th day; hydrocortisone 0.5 mg/ml, β-CD-TDS 1.0 mg/ml (combination uses hydrocortisone-21-phosphate)
# From the text: The rabbit corneal test described by Perlin, Fed. Proc. 36:101 (1977) modified as described below, was employed to examine the effectiveness of a combination of β-CD-TDS and hydrocortisone In this corneal test, a sustained release polymer impregnated with bacterial endotoxin was first implanted in rabbit corneas. Endotoxin slowly released from this implant induces angiogenesis in the cornea in a manner analogous to the neovascularization observed in patients rejecting a corneal transplant. Rather than employing a second implant containing the test substance to deliver such test substance as generally used, in the present experiments the test substance was applied topically to the cornea, i.e., in the form of eye drops. Animals having received an endotoxin-containing implant were divided into four groups and were treated by topical application (eye drops) as follows: Group 1, was not treated further and served as the control group; Group 2, received hydrocortisone alone (0.5 mg/ml); Group 3, hydrocortisone-21-phosphate and β-CD-TDS, (0.5 mg/ml and 1.0 mg/ml, respectively); and Group 4, β-CD-TDS (1.0 mg/ml). The diluent for the eye drops was saline in all cases. FIG. 3 (A-D) illustrates the results typically obtained on the 9th day post-implantation and treatment.
# [4] = Solubility in liquid water at zero °C; type: physicochemical
# From the text: The CD derivatives useful in the present invention are highly hydrophilic and therefore very water soluble. Without wishing to be bound by theory, we believe that a highly hydrophilic character is important to allow interaction with cellular surfaces. We also believe a very high water solubility of the derivative is an important factor which cooperatively interacts with the inherent complexing ability of the CD structure to provide effective inhibition of angiogenesis with an exogenous steroid, as provided by this invention. We believe that the hydrophlilic activity is roughly indicated by the affinity to water, as measured by water solubility. It is important to measure the same at 0°C since at higher temperatures the most suitable derivative have solubilities so high that meaningful measurements are difficult. […] All solubility measurements referred to herein relate to the solubility of the substantially anhydrous derivatives, and when these are salts, to the anhydrous sodium form. […] In order to make comparisons that included the very water-soluble CD sulfates, the solubilities of which were so high at room temperature that measurement was not practical, all solubility measurements were made in liquid water at zero °C. One can picture this to be a measure of the competition of the hydrophile bonding with water in relation to the orderly bonding of water to itself.
# calf aortic SMC = assay: Suppression of smooth muscle cell growth in tissue culture; type: cell-based; settings: each used alone, 0.03 µg/ml up to 400 µg/ml
# Procedure: (§1) The bioassay of this activity was made using tissue cultures of rat aortic SMC and calf aortic SMC, with dosages ranging from 0.03 µg/ml up to 400 µg/ml.
# rat aortic SMC = assay: as above; type: cell-based; settings: each used alone, 0.03 µg/ml up to 400 µg/ml
# Procedure: as §1
# [5] = compound 25 µg/10 µl with 50 µg to 60 µg of hydrocortisone in 10 µl of 0.45% methylcellulose
# [6] = compound 100 µg/10 µl with 50 µg to 60 µg of hydrocortisone in 10 µl of 0.45% methylcellulose
# [7] = 25 µg/10 µl of β-CD-TDS with Cortexolone 50 µl/10 µl
molecule,measurement,setting,value
"O=C(O)[C@@H]1CCN1 [(a) L-2-Azetidine, L-2-azetidinecarboxylic acid]",% Avascular zones,"[1]; L-2-Azetidine 400 ug/10 µl, (a) 0 µg CD-TDS, (b) 25 µg CD-TDS",28%
"C[C@]12CCC(=O)C=C1CC[C@@H]1[C@@H]2CC[C@@]2(C)[C@H]1CC[C@]2(O)C(=O)CO [Cortexolone, 17 alpha, 21-dihydroxypregn-4-ene-3,20-dione]",% Avascular zones,"[1]; Cortexolone alone, 50 µl/10 µl",zero
same,"Vessel Length, Inhibition (% of Untreated Control Group)",rabbit cornea [2],49%
same,"Vessel Length, Inhibition (% of Untreated Control Group)",rabbit cornea [2]; listed as cortexolone,about 49%
same,"Vessel Density, Inhibition (% of Untreated Control Group)",rabbit cornea [2],61%
same,"Vessel Density, Inhibition (% of Untreated Control Group)",rabbit cornea [2]; listed as cortexolone,about 61%
"C[C@]12CCC(=O)C=C1CC[C@@H]1[C@@H]2[C@@H](O)C[C@@]2(C)[C@H]1CC[C@]2(O)C(=O)CO [hydrocortisone, 11 beta, 17 alpha, 21-trihydroxypregn-4-ene-3,20-dione]",effect on endotoxin-induced angiogenesis in the cornea,rabbit cornea [3],only a slight inhibition of angiogenesis
"OC[C@H]1O[C@@H]2O[C@H]3[C@H](O)[C@@H](O)[C@@H](O[C@H]4[C@H](O)[C@@H](O)[C@@H](O[C@H]5[C@H](O)[C@@H](O)[C@@H](O[C@H]6[C@H](O)[C@@H](O)[C@@H](O[C@H]7[C@H](O)[C@@H](O)[C@@H](O[C@H]8[C@H](O)[C@@H](O)[C@@H](O[C@H]1[C@H](O)[C@H]2O)O[C@@H]8CO)O[C@@H]7CO)O[C@@H]6CO)O[C@@H]5CO)O[C@@H]4CO)O[C@@H]3CO [β-CD, β-cyclodextrin]",angiogenesis-inhibition,[1],total absence of angiogenesis-inhibition
same,% Avascular zones,[1]; [5],0.04%
same,% Avascular zones,[1]; [6],0%
same,angiogenesis suppression activity,[1],no indication of angiogenesis suppression activity
α-cyclodextrin [α-CD],angiogenesis-inhibition,[1],total absence of angiogenesis-inhibition
same,% Avascular zones,[1]; [5],0%
same,% Avascular zones,[1]; [6],5± 0.3%
same,angiogenesis suppression activity,[1],no indication of angiogenesis suppression activity
same,"Solubility 0°C, g/100 ml H₂O",[4],6 g/100 ml H₂O
β-cyclodextrin tetradeca sulfate [β-CD-TDS],% Avascular zones,[1]; [7],85%
same,% avascular zones (++) or greater,[1]; [7],31%
same,% Avascular zones,[1]; [5],58± 7.0%
same,% Avascular zones,[1]; compound 50 µg/10 µl with 50 µg to 60 µg of hydrocortisone in 10 µl of 0.45% methylcellulose,75± 5.8%
same,% Avascular zones,[1]; [6],55± 7.5%
same,"Solubility 0°C, g/100 ml H₂O",[4],42 g/100 ml H₂O
same,effectiveness relative to whole heparin in suppressing smooth muscle cell (SMC) growth,calf aortic SMC,about three
same,effectiveness relative to whole heparin in suppressing smooth muscle cell (SMC) growth,rat aortic SMC,about three
same,effect on endotoxin-induced angiogenesis in the cornea,rabbit cornea [3],slight stimulation of angiogenesis
γ-cyclodextrin [γ-CD],angiogenesis-inhibition,[1],total absence of angiogenesis-inhibition
same,% Avascular zones,[1]; [6],0%
same,angiogenesis suppression activity,[1],no indication of angiogenesis suppression activity
